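Assay format: 96-well plates, 48-hour exposure. GI50 = concentration required for 50% inhibition of growth.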 Activity calls are given as the source filed them. No stated cut-off is given here; in the data, active = GI50 up to about 1.1 µM and inactive = higher.
Key:
Experiment in all cases: growth of human tumour cells (NCI), 48 h
A549 = test system: A549
CAKI-1 = test system: CAKI-1
EKVX = test system: EKVX
HCT-15 = test system: HCT-15
IGROV-1 = test system: IGROV-1
K562 = test system: K562
MCF7 = test system: MCF7
Malme-3M = test system: Malme-3M
NCI-H522 = test system: NCI-H522
OVCAR-3 = test system: OVCAR-3
OVCAR-4 = test system: OVCAR-4
OVCAR-8 = test system: OVCAR-8
SF-295 = test system: SF-295
SK-MEL-2 = test system: SK-MEL-2
SK-MEL-5 = test system: SK-MEL-5
SNB-19 = test system: SNB-19
SNB-75 = test system: SNB-75
SW-620 = test system: SW-620
U-251 = test system: U-251
UACC-62 = test system: UACC-62

Row | SMILES | GI50 (A549) | GI50 (CAKI-1) | GI50 (EKVX) | GI50 (HCT-15) | GI50 (IGROV-1) | GI50 (K562) | GI50 (MCF7) | GI50 (Malme-3M) | GI50 (NCI-H522) | GI50 (OVCAR-3) | GI50 (OVCAR-4) | GI50 (OVCAR-8) | GI50 (SF-295) | GI50 (SK-MEL-2) | GI50 (SK-MEL-5) | GI50 (SNB-19) | GI50 (SNB-75) | GI50 (SW-620) | GI50 (U-251) | GI50 (UACC-62)
1 | CCCNC1=C(C)C(=O)C2=C(C1=O)[C@H](COC(N)=O)[C@]1(OC)[C@@H]3N[C@@H]3CN21 | 0.43 µM (active) | 4.57 µM (inactive) | 4.3 µM (inactive) | 4.01 µM | 5.04 µM (inactive) | 12.1 µM (inactive) | 0.0422 µM (active) | 6.07 µM (inactive) | 2.88 µM (inactive) | 11.6 µM (inactive) | 6.93 µM (inactive) | 10 µM (inactive) | 2.39 µM (inactive) | 9.51 µM (inactive) | 0.65 µM (active) | 2.01 µM (inactive) | 1.67 µM (inactive) | 3.73 µM (inactive) | 2.48 µM (inactive) | 0.472 µM (active)
2 | Cc1ccc(C(C)(C)C[P+](C)(c2ccccc2)c2ccccc2)cc1 | 11.6 µM (inactive) | 23.9 µM (inactive) | 38.5 µM (inactive) | 99.3 µM | 5.28 µM (inactive) | 5 µM (inactive) | 7.93 µM (inactive) | 4.18 µM (inactive) | 3.4 µM (inactive) | 3.24 µM (inactive) | 9.18 µM (inactive) | 12.7 µM (inactive) | 26.7 µM (inactive) | 4.21 µM (inactive) | 3.42 µM (inactive) | 12 µM (inactive) | 8.18 µM (inactive) | 17.4 µM (inactive) | 11.6 µM (inactive) | 5.38 µM (inactive)
3 | COc1nc2ccc(COc3ccc(C(=O)NC(CCC(=O)O)C(=O)O)cc3)cc2nc1OC (configuration not stated) | > 10 µM (inactive) | > 10 µM (inactive) | > 10 µM (inactive) | > 10 µM | > 10 µM (inactive) | > 10 µM (inactive) | > 10 µM (inactive) | – | > 10 µM (inactive) | > 10 µM (inactive) | > 10 µM (inactive) | – | > 10 µM (inactive) | > 10 µM (inactive) | > 10 µM (inactive) | > 10 µM (inactive) | > 10 µM (inactive) | > 10 µM (inactive) | > 10 µM (inactive) | > 10 µM (inactive)
4 | CCOC(=O)C1(C/C=C\CBr)CCCCCCC1=O (configuration not stated) | > 100 µM (inactive) | > 100 µM (inactive) | > 100 µM (inactive) | > 100 µM | > 100 µM (inactive) | – | > 100 µM (inactive) | > 100 µM (inactive) | > 100 µM (inactive) | – | > 100 µM (inactive) | > 100 µM (inactive) | > 100 µM (inactive) | > 100 µM (inactive) | > 100 µM (inactive) | > 100 µM (inactive) | > 100 µM (inactive) | > 100 µM (inactive) | > 100 µM (inactive) | > 100 µM (inactive)
5 | CC(=O)Nc1cccc(/N=N/N(C)C)c1 | > 100 µM (inactive) | > 100 µM (inactive) | > 100 µM (inactive) | > 100 µM | > 100 µM (inactive) | 98.4 µM (inactive) | > 100 µM (inactive) | > 100 µM (inactive) | > 100 µM (inactive) | > 100 µM (inactive) | > 100 µM (inactive) | > 100 µM (inactive) | > 63.8 µM (inactive) | > 100 µM (inactive) | > 100 µM (inactive) | > 100 µM (inactive) | > 49.3 µM (inactive) | > 100 µM (inactive) | > 100 µM (inactive) | > 100 µM (inactive)
6 | O=C(NN=C1CCCCC1)NN=C1CCCCC1 | – | > 100 µM (inactive) | – | > 100 µM | > 100 µM (inactive) | > 100 µM (inactive) | > 100 µM (inactive) | > 100 µM (inactive) | – | > 100 µM (inactive) | > 100 µM (inactive) | > 100 µM (inactive) | > 100 µM (inactive) | – | > 100 µM (inactive) | > 100 µM (inactive) | > 100 µM (inactive) | > 100 µM (inactive) | > 100 µM (inactive) | > 100 µM (inactive)
7 | CN1CCOC(c2ccc(Cl)cc2)O1 (configuration not stated) | > 100 µM (inactive) | > 100 µM (inactive) | > 100 µM (inactive) | > 100 µM | > 100 µM (inactive) | > 100 µM (inactive) | > 100 µM (inactive) | > 100 µM (inactive) | > 100 µM (inactive) | > 100 µM (inactive) | > 100 µM (inactive) | > 100 µM (inactive) | > 100 µM (inactive) | > 100 µM (inactive) | > 100 µM (inactive) | > 100 µM (inactive) | > 100 µM (inactive) | > 100 µM (inactive) | > 100 µM (inactive) | > 100 µM (inactive)
8 | CCOP(=O)(C/C=C/Cn1ncc(=O)[nH]c1=O)OCC | > 100 µM (inactive) | > 100 µM (inactive) | > 100 µM (inactive) | > 100 µM | > 100 µM (inactive) | > 100 µM (inactive) | > 100 µM (inactive) | > 100 µM (inactive) | > 100 µM (inactive) | > 100 µM (inactive) | > 100 µM (inactive) | > 100 µM (inactive) | – | > 100 µM (inactive) | > 100 µM (inactive) | > 100 µM (inactive) | > 100 µM (inactive) | > 100 µM (inactive) | > 100 µM (inactive) | –
9 | Cc1ccc(C2C(C(=O)C(C)(C)C)N2S(=O)(=O)c2ccc(C)cc2)cc1 (configuration not stated) | 40.3 µM (inactive) | 26.4 µM (inactive) | 15.7 µM (inactive) | 22.3 µM | 17.5 µM (inactive) | 25.3 µM (inactive) | 23.8 µM (inactive) | 23.2 µM (inactive) | 16.1 µM (inactive) | 26.5 µM (inactive) | 30.1 µM (inactive) | 21.3 µM (inactive) | 41.6 µM (inactive) | 46.6 µM (inactive) | – | 22.5 µM (inactive) | 19.5 µM (inactive) | 26.8 µM (inactive) | 20.2 µM (inactive) | 15.8 µM (inactive)
10 | CO/C(=N\N=C(/C)C(F)(F)F)c1ccncc1 | – | > 100 µM (inactive) | – | > 100 µM | > 100 µM (inactive) | > 100 µM (inactive) | > 100 µM (inactive) | > 100 µM (inactive) | > 100 µM (inactive) | > 100 µM (inactive) | > 100 µM (inactive) | > 100 µM (inactive) | – | > 100 µM (inactive) | > 100 µM (inactive) | > 100 µM (inactive) | > 100 µM (inactive) | – | > 100 µM (inactive) | > 100 µM (inactive)
11 | CCCC(O)C(NC(=O)CCl)C(=O)O (configuration not stated) | > 100 µM (inactive) | > 100 µM (inactive) | > 100 µM (inactive) | > 100 µM | > 100 µM (inactive) | > 100 µM (inactive) | > 100 µM (inactive) | > 100 µM (inactive) | > 100 µM (inactive) | > 100 µM (inactive) | > 100 µM (inactive) | > 100 µM (inactive) | > 100 µM (inactive) | > 100 µM (inactive) | > 100 µM (inactive) | > 100 µM (inactive) | > 100 µM (inactive) | > 100 µM (inactive) | > 100 µM (inactive) | > 100 µM (inactive)
12 | CSCCC(NC(=O)C(Cc1ccccc1)NC(=O)CNC(=O)CNC(=O)C(N)Cc1ccc(O)cc1)C(=O)O (configuration not stated) | > 100 µM (inactive) | > 100 µM (inactive) | > 100 µM (inactive) | > 100 µM | > 100 µM (inactive) | > 100 µM (inactive) | > 100 µM (inactive) | > 100 µM (inactive) | > 100 µM (inactive) | > 100 µM (inactive) | > 100 µM (inactive) | > 100 µM (inactive) | > 100 µM (inactive) | > 100 µM (inactive) | > 100 µM (inactive) | > 100 µM (inactive) | > 90.2 µM (inactive) | > 100 µM (inactive) | > 100 µM (inactive) | > 100 µM (inactive)
13 | O=P(Nc1ccccc1)(Oc1ccccc1)N(CCCl)CCCl (configuration not stated) | 94 µM (inactive) | > 100 µM (inactive) | > 100 µM (inactive) | > 100 µM | > 100 µM (inactive) | > 100 µM (inactive) | – | > 100 µM (inactive) | 14 µM (inactive) | > 100 µM (inactive) | > 100 µM (inactive) | 71.9 µM (inactive) | 69.3 µM (inactive) | 36.5 µM (inactive) | 39.4 µM (inactive) | – | > 100 µM (inactive) | > 100 µM (inactive) | > 100 µM (inactive) | 89.1 µM (inactive)
14 | N#Cc1c(NC(=S)NC(=O)c2ccccc2)nc2c(c1-c1ccccc1)CCC2 | > 100 µM (inactive) | > 100 µM (inactive) | 24.5 µM (inactive) | > 100 µM | > 100 µM (inactive) | > 100 µM (inactive) | > 10 µM (inactive) | 78.7 µM (inactive) | – | > 100 µM (inactive) | > 100 µM (inactive) | 67 µM (inactive) | 91.2 µM (inactive) | – | 73.3 µM (inactive) | > 100 µM (inactive) | 22.7 µM (inactive) | > 100 µM (inactive) | > 100 µM (inactive) | > 100 µM (inactive)
15 | Cc1cc(C)c2c(O)cc(-c3ccc(F)cc3)nc2n1 | 44.6 µM (inactive) | 33.6 µM (inactive) | 48.5 µM (inactive) | 47.1 µM | 32.4 µM (inactive) | 32.1 µM (inactive) | 30.7 µM (inactive) | 42.9 µM (inactive) | 30.3 µM (inactive) | – | 17.6 µM (inactive) | 76.7 µM (inactive) | – | 38.7 µM (inactive) | – | > 100 µM (inactive) | 27.2 µM (inactive) | 34.4 µM (inactive) | – | 33.7 µM (inactive)

Source: ChEMBL document CHEMBL1201862, “PubChem BioAssay data set” (2004)
